Structures are written as SMILES. Several values for one entry are separate records, joined by “and”; a condition that tells them apart may be missing. Equal entries are not always repeated. Activity calls are given as the source filed them. How the calls were made is not given here.

This data set deals with rodent lifetime carcinogenesis bioassay, tumor incidence TD50. Put plainly: carcinogenic potency in animals, long-term in vivo studies, CPDB compilation (AID 1745844).

`CCc1cc(C(N)=S)ccn1`: the TD50 (as a rule, the 50% point of the dose-response relation for the toxic effect studied) runs as follows: (mouse, strain B6C3F1, females, in feed, site: any site (literature study), lesion: several types, types named in the paper, dosed 78 weeks, study length 104 weeks) 450 mg/kg/day (inactive); (mouse, strain BALB/c, females, by gavage, site: liver, lesion: papillary carcinoma, dosed 50 weeks, study length 69 weeks) 240 mg/kg/day (inactive); (mouse, strain BALB/c, females, by gavage, site: lung, lesion: adenoma, dosed 50 weeks, study length 69 weeks) 124 mg/kg/day (inactive); (mouse, strain BALB/c, females, by gavage, site: thyroid gland, lesion: carcinoma, dosed 50 weeks, study length 69 weeks) 69.3 mg/kg/day; (rat, strain Fischer 344, females, in feed, site: liver, lesion: hepatocellular adenoma + hepatocellular carcinoma + neoplastic nodule, dosed 78 weeks, study length 104 weeks) 508 mg/kg/day; (rat, strain Fischer 344, males, in feed, site: liver, lesion: hepatocellular adenoma + hepatocellular carcinoma + neoplastic nodule, dosed 78 weeks, study length 103 weeks) 623 mg/kg/day. Also, the carcinogen call is “negative (inactive)” (mouse, strain B6C3F1, males, in feed, site: any site (literature study), lesion: several types, types named in the paper, dosed 78 weeks, study length 104 weeks); “negative (inactive)” (rat, strain Fischer 344, females, in feed, site: any site (literature study), lesion: several types, types named in the paper, dosed 78 weeks, study length 104 weeks); “negative (inactive)” (rat, strain Fischer 344, males, in feed, site: any site (literature study), lesion: several types, types named in the paper, dosed 78 weeks, study length 103 weeks).

`O=C1C2(Cl)C3(Cl)C4(Cl)C(Cl)(Cl)C5(Cl)C3(Cl)C1(Cl)C5(Cl)C24Cl` (configuration not stated): the TD50 is 1.57 mg/kg/day (mouse, strain B6C3F1, females, in feed, site: any site (literature study), lesion: several types, types named in the paper, dosed 80 weeks, study length 90 weeks); 1.62 mg/kg/day (mouse, strain B6C3F1, females, in feed, site: liver, lesion: hepatocellular adenoma + hepatocellular carcinoma + neoplastic nodule, dosed 80 weeks, study length 90 weeks); 1.62 mg/kg/day (mouse, strain B6C3F1, females, in feed, site: liver, lesion: hepatocellular carcinoma, dosed 80 weeks, study length 90 weeks); 0.705 mg/kg/day (mouse, strain B6C3F1, males, in feed, site: any site (literature study), lesion: several types, types named in the paper, dosed 80 weeks, study length 89 weeks); 0.705 mg/kg/day (mouse, strain B6C3F1, males, in feed, site: liver, lesion: hepatocellular adenoma + hepatocellular carcinoma + neoplastic nodule, dosed 80 weeks, study length 89 weeks); 0.705 mg/kg/day (mouse, strain B6C3F1, males, in feed, site: liver, lesion: hepatocellular carcinoma, dosed 80 weeks, study length 89 weeks). For the same compound, the TD50 runs as follows: (mouse, strain B6C3F1, males, in feed, site: lung, lesion: alveolar/bronchiolar adenoma + alveolar/bronchiolar carcinoma, dosed 80 weeks, study length 89 weeks) 29.3 mg/kg/day; (rat, strain Osborne-Mendel, females, in feed, site: any site (literature study), lesion: several types, types named in the paper, dosed 80 weeks, study length 109 weeks) 1.83 mg/kg/day; (rat, strain Osborne-Mendel, females, in feed, site: liver, lesion: hepatocellular adenoma + hepatocellular carcinoma + neoplastic nodule, dosed 80 weeks, study length 109 weeks) 2.96 mg/kg/day; (rat, strain Osborne-Mendel, males, in feed, site: any site (literature study), lesion: several types, types named in the paper, dosed 80 weeks, study length 109 weeks) 1.42 mg/kg/day (inactive); (rat, strain Osborne-Mendel, males, in feed, site: liver, lesion: hepatocellular adenoma + hepatocellular carcinoma + neoplastic nodule, dosed 80 weeks, study length 109 weeks) 2.49 mg/kg/day; (rat, strain Sprague-Dawley, males, in feed, site: liver, lesion: neoplastic nodule, dosed 91 weeks, study length 91 weeks) 0.199 mg/kg/day.

As for `C=CC(=O)c1ccc2c(c1)OCO2`, the carcinogen call (rat, strain Charles River CD (Sprague-Dawley), males, in feed, site: liver, lesion: carcinoma, dosed 73 weeks, study length 95 weeks) was “negative (inactive)”.

For the compound `CCC[CH2][Sn]([CH2]CCC)([CH2]CCC)[O][Sn]([CH2]CCC)([CH2]CCC)[CH2]CCC`, the TD50 was 1.79 mg/kg/day (rat, strain Wistar, females, in feed, site: adrenal medulla, lesion: pheochromocytoma, dosed 106 weeks, study length 106 weeks); 3.73 mg/kg/day (rat, strain Wistar, females, in feed, site: pituitary gland, anterior, lesion: one or several types, types not named, dosed 106 weeks, study length 106 weeks); 1.93 mg/kg/day (rat, strain Wistar, males, in feed, site: adrenal medulla, lesion: pheochromocytoma, dosed 106 weeks, study length 106 weeks); 1.9 mg/kg/day (rat, strain Wistar, males, in feed, site: pituitary gland, anterior, lesion: one or several types, types not named, dosed 106 weeks, study length 106 weeks).

In the case of `O=C1CCCCCN1`, the carcinogen call by setting is: (mouse, strain B6C3F1, females, in feed, site: any site (literature study), lesion: several types, types named in the paper, dosed 103 weeks, study length 105 weeks) “negative (inactive)”; (mouse, strain B6C3F1, males, in feed, site: any site (literature study), lesion: several types, types named in the paper, dosed 103 weeks, study length 105 weeks) “negative (inactive)”; (rat, strain Fischer 344, females, in feed, site: any site (literature study), lesion: several types, types named in the paper, dosed 103 weeks, study length 105 weeks) “negative (inactive)”. Further, the TD50 (mouse, strain B6C3F1, males, in feed, site: liver, lesion: hepatocellular adenoma + hepatocellular carcinoma + neoplastic nodule, dosed 103 weeks, study length 105 weeks) was determined as 34300 mg/kg/day; the TD50 (rat, strain Fischer 344, males, in feed, site: liver, lesion: hepatocellular adenoma + hepatocellular carcinoma + neoplastic nodule, dosed 103 weeks, study length 105 weeks) is 5690 mg/kg/day; the TD50 (rat, strain Fischer 344, males, in feed, site: pituitary gland, lesion: carcinoma, NOS, dosed 103 weeks, study length 105 weeks) is 3560 mg/kg/day (inactive).

For the compound `CCOC(=O)c1ccc(N)cc1`, the TD50 runs as follows: (rat, strain ACI, both sexes, in feed, site: colorectum, lesion: papilloma, dosed 94 weeks, study length 94 weeks) 331 mg/kg/day; (rat, strain ACI, both sexes, in feed, site: colorectum, lesion: squamous-cell carcinoma, dosed 94 weeks, study length 94 weeks) 1760 mg/kg/day; (rat, strain ACI, both sexes, in feed, site: intestine, lesion: several types, types named in the paper, dosed 94 weeks, study length 94 weeks) 191 mg/kg/day; (rat, strain ACI, females, in feed, site: cecum, lesion: adenoma, dosed 68 weeks, study length 68 weeks) 1270 mg/kg/day; (rat, strain ACI, females, in feed, site: colorectum, lesion: adenocarcinoma, dosed 68 weeks, study length 68 weeks) 373 mg/kg/day; (rat, strain ACI, females, in feed, site: colorectum, lesion: adenoma, dosed 68 weeks, study length 68 weeks) 977 mg/kg/day. Further, the TD50 is 219 mg/kg/day (rat, strain ACI, females, in feed, site: colorectum, lesion: papilloma, dosed 68 weeks, study length 68 weeks); 1760 mg/kg/day (rat, strain ACI, females, in feed, site: colorectum, lesion: squamous-cell carcinoma, dosed 68 weeks, study length 68 weeks); 2560 mg/kg/day (inactive) and 1640 mg/kg/day (inactive) (rat, strain ACI, females, in feed, site: urinary bladder, lesion: one or several types, types not named, dosed 68 weeks, study length 68 weeks); 4250 mg/kg/day (inactive) (rat, strain ACI, males, in feed, site: cecum, lesion: adenoma, dosed 68 weeks, study length 68 weeks); 182 mg/kg/day (rat, strain ACI, males, in feed, site: colorectum, lesion: adenocarcinoma, dosed 68 weeks, study length 68 weeks); 1700 mg/kg/day (rat, strain ACI, males, in feed, site: colorectum, lesion: adenoma, dosed 68 weeks, study length 68 weeks). The TD50 (rat, strain ACI, males, in feed, site: colorectum, lesion: squamous-cell carcinoma, dosed 68 weeks, study length 68 weeks) was 2050 mg/kg/day.

On to `CCCC[N+](=O)[O-]`, for which the carcinogen call (rat, strain Fischer 344, males, by gavage, site: liver, lesion: one or several types, types not named, dosed 50 weeks, study length 83 weeks) was “negative (inactive)”.

Regarding `O=S(=O)([O-])[O-].[Cd+2]`, the carcinogen call was “negative (inactive)” (hamster, strain Syrian Golden, females, inhaled, site: lung, lesion: one or several types, types not named, dosed 61 weeks, study length 76 weeks); “negative (inactive)” (hamster, strain Syrian Golden, females, inhaled, site: lung, lesion: one or several types, types not named, dosed 64 weeks, study length 77 weeks); “negative (inactive)” (hamster, strain Syrian Golden, males, inhaled, site: lung, lesion: one or several types, types not named, dosed 61 weeks, study length 103 weeks); “negative (inactive)” (hamster, strain Syrian Golden, males, inhaled, site: lung, lesion: one or several types, types not named, dosed 64 weeks, study length 113 weeks); “negative (inactive)” (mouse, strain NMRI, females, inhaled, site: lung, lesion: adenocarcinoma, dosed 69 weeks, study length 94 weeks); “negative (inactive)” (mouse, strain NMRI, females, inhaled, site: lung, lesion: adenoma, dosed 42 weeks, study length 96 weeks). Moreover, the carcinogen call (mouse, strain NMRI, females, inhaled, site: lung, lesion: adenoma, dosed 69 weeks, study length 94 weeks) was “negative (inactive)”; the carcinogen call (mouse, strain NMRI, females, inhaled, site: lung, lesion: several types, types named in the paper, dosed 42 weeks, study length 96 weeks) is “negative (inactive)”; the carcinogen call (mouse, strain NMRI, females, inhaled, site: lung, lesion: several types, types named in the paper, dosed 69 weeks, study length 94 weeks) was “negative (inactive)”. Also, the TD50 (mouse, strain NMRI, females, inhaled, site: lung, lesion: adenocarcinoma, dosed 42 weeks, study length 96 weeks) was 0.829 mg/kg/day (inactive); the TD50 (rat, strain Wistar, females, inhaled, site: lung, lesion: adenocarcinoma, dosed 78 weeks, study length 126 weeks) came to 0.112 mg/kg/day; the TD50 (rat, strain Wistar, females, inhaled, site: lung, lesion: adenosquamous carcinoma, dosed 78 weeks, study length 126 weeks) was 0.112 mg/kg/day; the TD50 (rat, strain Wistar, females, inhaled, site: lung, lesion: alveolar/bronchiolar adenoma, dosed 78 weeks, study length 126 weeks) amounted to 0.18 mg/kg/day; the TD50 (rat, strain Wistar, females, inhaled, site: lung, lesion: several types, types named in the paper, dosed 78 weeks, study length 126 weeks) is 0.0174 mg/kg/day; the TD50 (rat, strain Wistar, females, inhaled, site: lung, lesion: squamous-cell tumor, dosed 78 weeks, study length 126 weeks) was 0.381 mg/kg/day. Moreover, the TD50 (rat, strain Wistar, males, inhaled, site: lung, lesion: adenocarcinoma, dosed 60 weeks, study length 134 weeks) was found to be 0.0537 mg/kg/day; the TD50 (rat, strain Wistar, males, inhaled, site: lung, lesion: adenosquamous carcinoma, dosed 60 weeks, study length 134 weeks) worked out at 0.219 mg/kg/day; the TD50 (rat, strain Wistar, males, inhaled, site: lung, lesion: alveolar/bronchiolar adenoma, dosed 60 weeks, study length 134 weeks) worked out at 0.219 mg/kg/day; the TD50 (rat, strain Wistar, males, inhaled, site: lung, lesion: several types, types named in the paper, dosed 60 weeks, study length 134 weeks) is 0.0289 mg/kg/day.

For the compound `Cc1ncc([N+](=O)[O-])n1C`, the TD50 is, setting by setting: (rat, strain Sprague-Dawley, females, in feed, site: any site (literature study), lesion: several types, types named in the paper, dosed 46 weeks, study length 66 weeks) 17 mg/kg/day; (rat, strain Sprague-Dawley, females, in feed, site: mammary gland, lesion: fibroadenoma, dosed 46 weeks, study length 66 weeks) 17 mg/kg/day.
